{
  "source": "paper PMC6156138",
  "about": "“Combination of a Latency-Reversing Agent With a Smac Mimetic Minimizes Secondary HIV-1 Infection in vitro” (Frontiers in Microbiology, 2018)",
  "key": {"[1]": {"system": "latent HIV-1-infected ACH-2 cells", "experiment": "HIV reactivation from latent cells: intracellular HIV-1 RNA (qRT-PCR)", "format": "cell-based", "settings": "24 h (Figure 1C)", "protocol": "The reactivation of HIV-1 from latently infected cells was determined by the measurement of supernatant p24 antigen and intracellular HIV-1 RNA levels. ACH-2 cells or U1 cells (5 × 10^5 cells/mL) were placed in 96-well plates, and then the cells were incubated with different concentrations of drugs for 24 h to extract RNA and for 48 h to collect the supernatant. The increase in supernatant p24 antigen levels was measured using […] G1200 (Fujirebio, Tokyo, Japan). The total RNA was extracted using an RNeasy Mini Kit (Qiagen, Hilden, Germany), following the manufacturer’s protocols. The cDNA was synthesized using PrimeScript RT Master Mix (Takara Bio, Shiga, Japan), and quantitative real-time PCR analyses for the intracellular HIV-1 RNA were carried out with PowerUp^TM SYBR Green Master Mix (Applied Biosystems, Foster City, CA, United States). The oligonucleotide primers used were as follows: 5′-[…]-3′ (forward) and 5′-[…]-3′ (reverse) for HIV-RNA detection; 5′-[…]-3′ (forward) and 5′-[…]-3′ (reverse) for β-actin. The HIV-RNA expressions were normalized with that of β-actin, which was indicated as the relative quantity, and the increase in HIV-1 RNA levels in the presence of a drug was compared with that without a drug.\nFIGURE 1 (A,B) The increase in viral production from ACH-2 cells (A) and U1 cells (B) was examined by supernatant p24 antigen levels on day 2. […]"}, "J1.1 cells": {"system": "J1.1 cells", "experiment": "Virus production in J1.1 cells (viral RNA copies in supernatant)", "format": "cell-based, HIV-1", "settings": "birinapant combined with TNF-α 20 ng/mL, 48 h", "protocol": "Cells were treated with birinapant with ( [drawing 1] ) or without ( [drawing 2] ) TNF-α (20 ng/mL). After 48 h incubation, culture supernatant was harvested, and viral RNA was extracted. Viral copy numbers in culture supernatant were measured by real-time RT-PCR. Click here for additional data file."}},
  "data": [
    {"smiles": "CC[C@H](NC(=O)[C@H](C)NC)C(=O)N1C[C@@H](O)C[C@H]1Cc1c(-c2[nH]c3cc(F)ccc3c2C[C@@H]2C[C@H](O)CN2C(=O)[C@H](CC)NC(=O)[C@H](C)NC)[nH]c2cc(F)ccc12", "note": "[Birinapant]", "values": [
      {"measurement": "intracellular HIV-1 mRNA levels", "setting": "[1]", "result": "only had a minor effect on HIV-1 reactivation"},
      {"measurement": "virus production (viral copy numbers in culture supernatant)", "setting": "J1.1 cells", "result": "suppresses virus production"}
    ]}
  ]
}
